Measurements taken from patent US20170071976A1, “PHARMACEUTICAL SOLUTION HAVING ANTI-TUMOR EFFECT-ENHANCING AND TOXICITY-REDUCING EFFECT, AND PHARMACEUTICAL COMPOSITION COMPRISING SAME” (priority 2014, published 2017).

Columns and labels:
Experiment in all cases: MTT assay: in vitro inhibition of growth by deuterium oxide
Type in all cases: cell-based, human
[1] = system: CFPAC-1 pancreatic cancer cell line
Description: (§1) Studies of in vitro inhibition of growth of human tumor cells by deuterium oxide, by the MTT (3-(4,5-dimethylthiazol-2-yl)-2,5-diphenyltetrazolium bromide) assay
(§2) 1. A bottle of cells that had been cultured for 3 to 4 days and were in the exponential phase was taken, a suitable amount of 0.25% Trypsin-EDTA solution was added thereto to detach the cells from the wall, and the cells were suspended in 10 ml RPMI 1640 medium containing 10% FBS. 2. The cells were counted on a hemocytometer, and generally viable cells should be not less than 97%. 3. The cell suspension was diluted with a complete medium to prepare a suspension containing 1×10^4 cells/ml. 4. To each well of a 12-well culture plate, 300 μl cell suspension was added. The addition of cells should be finished within 4 hours. The plate was placed in an incubator at 37° C. and 5% CO2 for 24 hours. 5. Powdery RPMI Medium 1640 (Gibco, USA, Cat#: 31800-022) was dissolved in deuterium oxide (provided by Cambridge Isotope Laboratories, Inc. (US)) to prepare a cell culture medium (unless particularly specified, all culture media used in the Examples hereinafter were prepared from powdery RPMI Medium 1640 and deuterium oxide) at a concentration shown in Table 1, which was added into the cell culture plate. 6. The cell culture plate was incubated for 3 days in an incubator at 37° C., 5% CO2 and 100% humidity. 7. A solution of 1 mg/ml MTT was prepared in a serum-free RPMI1640 medium, added to the plate at 200 μl/well, and incubated at 37° C. for 4 hours, to allow MTT to be reduced to formazan. 8. The supernatant was removed by pipetting, 200 μl DMSO was added to dissolve formazan, and the solution was well mixed on a platform shaker. 9. Absorbance of each well was measured on an ELISA reader with a detection wavelength of 570 nm and a reference wavelength of 450 nm. 10. The assay was repeated one more time.
(§3) Calculation of results: Inhibition of growth of tumor cells by deuterium oxide was calculated using tumor cells treated with sodium chloride physiological solution as a control group. Inhibition of cell growth was plotted against amounts of deuterium oxide to obtain a dose response curve, from which the half maximal inhibitory concentration (IC50) of deuterium oxide was derived.
(§4) Inhibition of tumor cell growth (%)=(1−OD test/OD control)×100%

[2] = system: Caov-3 ovarian cancer cell line; conditions: expressed in v/v %
Description: as §1, §2, §3, §4

[3] = system: HCT-116 colon cancer cell line
Description: as §1, §2, §3, §4

K562 leukemia cell line = system: K562 leukemia cell line
Description: as §1, §2, §3, §4

[4] = system: MCF-7 breast cancer cell line
Description: as §1, §2, §3, §4

[5] = system: NCI-H460 lung cancer cell line
Description: as §1, §2, §3, §4

[6] = system: SF767 brain cancer cell line
Description: as §1, §2, §3, §4

[2H]O[2H] [Deuterium oxide]
Inhibition of growth (%) ([1]; deuterium oxide 1.2% (v/v)): 6.82%
Inhibition of growth (%) ([1]; deuterium oxide 2.5% (v/v)): 14.05%
Inhibition of growth (%) ([1]; deuterium oxide 5% (v/v)): 13.42%
Inhibition of growth (%) ([1]; deuterium oxide 10% (v/v)): 10.75%
Inhibition of growth (%) ([1]; deuterium oxide 20% (v/v)): 14.84%
Inhibition of growth (%) ([1]; deuterium oxide 30% (v/v)): 26.16%
Inhibition of growth (%) ([1]; deuterium oxide 40% (v/v)): 33.67%
Inhibition of growth (%) ([1]; deuterium oxide 50% (v/v)): 45.30%
Inhibition of growth (%) ([1]; deuterium oxide 60% (v/v)): 61.42%
Inhibition of growth (%) ([1]; deuterium oxide 70% (v/v)): 77.94%
Inhibition of growth (%) ([1]; deuterium oxide 80% (v/v)): 91.85%
IC10 ([1]; expressed in v/v %): 3.20%
IC50 ([1]; expressed in v/v %): 59.43%
IC10 [2]: 11.51%
IC50 [2]: 46.83%
Inhibition of growth (%) ([3]; deuterium oxide 1.2% (v/v)): 11.81%
Inhibition of growth (%) ([3]; deuterium oxide 2.5% (v/v)): 31.55%
Inhibition of growth (%) ([3]; deuterium oxide 5% (v/v)): 21.64%
Inhibition of growth (%) ([3]; deuterium oxide 10% (v/v)): 18.58%
Inhibition of growth (%) ([3]; deuterium oxide 20% (v/v)): 23.32%
Inhibition of growth (%) ([3]; deuterium oxide 30% (v/v)): 30.21%
Inhibition of growth (%) ([3]; deuterium oxide 40% (v/v)): 37.43%
Inhibition of growth (%) ([3]; deuterium oxide 50% (v/v)): 48.43%
Inhibition of growth (%) ([3]; deuterium oxide 60% (v/v)): 66.31%
Inhibition of growth (%) ([3]; deuterium oxide 70% (v/v)): 70.42%
Inhibition of growth (%) ([3]; deuterium oxide 80% (v/v)): 94.62%
IC10 ([3]; expressed in v/v %): 0.25%
IC50 ([3]; expressed in v/v %): 51.13%
Inhibition of growth (%) (K562 leukemia cell line; deuterium oxide 1.2% (v/v)): −2.47%
Inhibition of growth (%) (K562 leukemia cell line; deuterium oxide 2.5% (v/v)): 6.51%
Inhibition of growth (%) (K562 leukemia cell line; deuterium oxide 5% (v/v)): 4.23%
Inhibition of growth (%) (K562 leukemia cell line; deuterium oxide 10% (v/v)): −7.60%
Inhibition of growth (%) (K562 leukemia cell line; deuterium oxide 20% (v/v)): 9.10%
Inhibition of growth (%) (K562 leukemia cell line; deuterium oxide 30% (v/v)): 22.72%
Inhibition of growth (%) (K562 leukemia cell line; deuterium oxide 40% (v/v)): 39.51%
Inhibition of growth (%) (K562 leukemia cell line; deuterium oxide 50% (v/v)): 55.51%
Inhibition of growth (%) (K562 leukemia cell line; deuterium oxide 60% (v/v)): 70.13%
Inhibition of growth (%) (K562 leukemia cell line; deuterium oxide 70% (v/v)): 88.59%
Inhibition of growth (%) (K562 leukemia cell line; deuterium oxide 80% (v/v)): 93.24%
IC10 (K562 leukemia cell line; expressed in v/v %): 14.83%
IC50 (K562 leukemia cell line; expressed in v/v %): 51.72%
Inhibition of growth (%) ([4]; deuterium oxide 1.2% (v/v)): 9.78%
Inhibition of growth (%) ([4]; deuterium oxide 2.5% (v/v)): 11.04%
Inhibition of growth (%) ([4]; deuterium oxide 5% (v/v)): 15.71%
Inhibition of growth (%) ([4]; deuterium oxide 10% (v/v)): 22.47%
Inhibition of growth (%) ([4]; deuterium oxide 20% (v/v)): 31.60%
Inhibition of growth (%) ([4]; deuterium oxide 30% (v/v)): 40.38%
Inhibition of growth (%) ([4]; deuterium oxide 40% (v/v)): 52.45%
Inhibition of growth (%) ([4]; deuterium oxide 50% (v/v)): 63.22%
Inhibition of growth (%) ([4]; deuterium oxide 60% (v/v)): 86.41%
Inhibition of growth (%) ([4]; deuterium oxide 70% (v/v)): 89.06%
Inhibition of growth (%) ([4]; deuterium oxide 80% (v/v)): 98.08%
IC10 ([4]; expressed in v/v %): 3.28%
IC50 ([4]; expressed in v/v %): 61.29%
Inhibition of growth (%) ([5]; deuterium oxide 1.2% (v/v)): 1.15%
Inhibition of growth (%) ([5]; deuterium oxide 2.5% (v/v)): 9.40%
Inhibition of growth (%) ([5]; deuterium oxide 5% (v/v)): 11.27%
Inhibition of growth (%) ([5]; deuterium oxide 10% (v/v)): 9.47%
Inhibition of growth (%) ([5]; deuterium oxide 20% (v/v)): 11.60%
Inhibition of growth (%) ([5]; deuterium oxide 30% (v/v)): 30.58%
Inhibition of growth (%) ([5]; deuterium oxide 40% (v/v)): 42.05%
Inhibition of growth (%) ([5]; deuterium oxide 50% (v/v)): 53.09%
Inhibition of growth (%) ([5]; deuterium oxide 60% (v/v)): 69.50%
Inhibition of growth (%) ([5]; deuterium oxide 70% (v/v)): 82.33%
Inhibition of growth (%) ([5]; deuterium oxide 80% (v/v)): 98.06%
IC10 ([5]; expressed in v/v %): 5.60%
IC50 ([5]; expressed in v/v %): 48.75%
Inhibition of growth (%) ([6]; deuterium oxide 1.2% (v/v)): 4.76%
Inhibition of growth (%) ([6]; deuterium oxide 2.5% (v/v)): 3.94%
Inhibition of growth (%) ([6]; deuterium oxide 5% (v/v)): −4.41%
Inhibition of growth (%) ([6]; deuterium oxide 10% (v/v)): −8.43%
Inhibition of growth (%) ([6]; deuterium oxide 20% (v/v)): 7.66%
Inhibition of growth (%) ([6]; deuterium oxide 30% (v/v)): 8.42%
Inhibition of growth (%) ([6]; deuterium oxide 40% (v/v)): 16.50%
Inhibition of growth (%) ([6]; deuterium oxide 50% (v/v)): 21.23%
Inhibition of growth (%) ([6]; deuterium oxide 70% (v/v)): 49.65%
Inhibition of growth (%) ([6]; deuterium oxide 80% (v/v)): 71.22%
IC10 ([6]; expressed in v/v %): 31.85%
IC50 ([6]; expressed in v/v %): 91.12%
